Test [1] has as its system HepG2. The test can be described thus: Cytotoxicity against human HepG2 Cells after 72 hrs by MTT assay. As to conditions: HepG2, 72 h. The format is functional, cell-based. On the technique in general: Tetrazolium dyes change colour on reduction, which living cells bring about.
Test [2] can be described thus: Anticancer activity against human LX2 cells after 72 hrs by MTT assay. The format is functional, cell-based. As to conditions: LX-2, 72 h.
For test [3], the system named is SMMC-7721. Briefly: Anticancer activity against human SMMC7721 cells after 72 hrs by MTT assay. The class given is functional, cell-based. As to conditions: SMMC-7721, 72 h.
The subject of test [4] is MDA-MB-231. Briefly: Anticancer activity against human MDA-MB-231 cells after 72 hrs by MTT assay. Conditions: MDA-MB-231, 72 h. The class given is functional, cell-based.
Test [5] concerns AGS. The test can be described thus: Cytotoxicity against human AGS Cells. The format is functional, cell-based.
The test system of test [6] is HCT-116. The test can be described thus: Cytotoxicity against human HCT116 Cells. The class given is functional, cell-based.
The subject of test [7] is HepG2. Briefly: Cytotoxicity against human HepG2 Cells. The class given is functional, cell-based.
The test system of test [8] is HeLa. The test can be described thus: Cytotoxicity against human HeLa Cells. The format is functional, cell-based.
Test [9] concerns HepG2. Briefly: Cytotoxicity against human HepG2 Cells by MTT/Trypan Blue Exclusion Assay. The format is functional, cell-based.
Test [10] relates to Caco-2. The test can be described thus: Cytotoxicity against human Caco2 Cells after 72 hrs by MTT assay. The class given is functional, cell-based. As to conditions: Caco-2, 72 h.
The subject of test [11] is EA.hy 926. Briefly: Cytotoxicity against human EAhy926 Cells after 72 hrs by MTT assay. The class given is functional, cell-based. As to conditions: EA.hy 926, 72 h.
The test system of test [12] is HT-29. Briefly: Cytotoxicity against human HT-29 Cells after 72 hrs by MTT assay. The class given is functional, cell-based. As to conditions: HT-29, 72 h.
Test [13] deals with CHO-K1. The test can be described thus: Cytotoxicity against […] Cells after 72 hrs by MTT assay. The format is functional, cell-based. Conditions: Cricetulus griseus, CHO-K1, 72 h.
Test [14] can be described thus: Cytotoxicity against mitoxantrone resistant […] cells expressing BCRP after 15 mins by fluorescence assay. The class given is functional, cell-based. As to conditions: Canis lupus familiaris, MDCK2, 0.25 h.
Test [15] deals with HT-29. The test can be described thus: Cytotoxicity against human HT-29 Cells. The format is functional, cell-based.
Test [16] relates to A549. The test can be described thus: Cytotoxicity against human A549 Cells by MTT assay. The format is functional, cell-based.
The subject of test [17] is MCF7. Briefly: Cytotoxicity against human MCF7 cells by MTT assay. The class given is functional, cell-based.
For test [18], the system named is HT-29. Briefly: Cytotoxicity against human HT-29 cells by MTT assay. The class given is functional, cell-based.
Test [19] deals with PC-3. Briefly: Cytotoxicity against human PC3 cells by MTT assay. The format is functional, cell-based.
Test [20] deals with MIA PaCa-2. The test can be described thus: Cytotoxicity against human MIAPaCa2 cells by MTT assay. The class given is functional, cell-based.
Test [21] concerns NCI-H460. Briefly: Cytotoxicity against human H460 cells by MTT assay. The format is functional, cell-based.
The test system of test [22] is PANC-1. The test can be described thus: Cytotoxicity against human PANC1 cells by MTT assay. The class given is functional, cell-based.
Test [23] has as its system MCF7. Briefly: Cytotoxicity against human MCF7 Cells after 48 hrs by MTS assay. As to conditions: MCF7, 48 h. The format is functional, cell-based.
Test [24] is described as follows: Cytotoxicity against human CCD-1059SK Cells after 48 hrs by MTS assay. The class given is functional.
Test [25] relates to KBM5. The test can be described thus: Growth inhibition of human KBM5 cells relative to control. The format is functional.
For test [26], the system named is HCT-116. Briefly: Growth inhibition of human HCT116 cells relative to control. The format is functional.
Test [27] has as its system MCF7. Briefly: Cytotoxicity against human MCF7 Cells after 48 hrs by neutral red dye-based assay. As to conditions: MCF7, 48 h. The class given is functional, cell-based.
The test system of test [28] is HCT-116. The test can be described thus: Antitumor activity against human HCT116 cells after 72 hrs by FMCA method. The class given is functional, cell-based. As to conditions: HCT-116, 72 h, pooled result: one value given for 5 cell lines, strains, targets or settings.
Test [29] relates to AGS. The test can be described thus: Cytotoxicity against human AGS Cells by MTT assay. The class given is functional, cell-based.
Test [30] deals with A549. The test can be described thus: Cytotoxicity against human A549 Cells after 24 hrs by MTT assay. Conditions: A549, 24 h. The class given is functional, cell-based.
Test [31] has as its system MCF7. Briefly: Cytotoxicity against human MCF7 cells. The format is functional, cell-based.
The test system of test [32] is MDA-MB-231. Briefly: Cytotoxicity against human MDA-MB-231 cells. The format is functional, cell-based.
Test [33] has as its system SW-620. The test can be described thus: Cytotoxicity against human SW620 Cells. The format is functional, cell-based.

The IC50 is the concentration at which inhibition is half-maximal. A lower IC50 goes with inhibition by little substance. `COc1cc(/C=C/C(=O)CC(=O)/C=C/c2ccc(OC(=O)C(N)CC[Se]C)c(OC)c2)ccc1O` (stereo unspecified): the IC50 in test [1] amounted to 0.31 µM; in test [2] it was 0.62 µM; in test [3], 0.18 µM; in test [4] it was 0.52 µM.

Regarding `COc1cc(/C=C/C(=O)CC(=O)/C=C/c2ccc(OC3O[C@H](CO)[C@@H](O)[C@H](O)[C@H]3O)c(OC)c2)ccc1O` (stereo partly specified), the IC50 turned out to be 5.86 µM in test [5], 5.4 µM in [6], 18.6 µM in test [7] and 12.5 µM in test [8].

`COc1cc(CCC2=NC(=S)N=C(CCc3ccc(O)c(OC)c3)C2=Cc2coc3c(OC)c4occc4c(OC)c3c2=O)ccc1O` gave an IC50 in test [9] of 23 µM.

In the case of `O=C(/C=C(O)/C=C/c1ccc[nH]1)/C=C/c1ccc[nH]1`, the IC50 in test [10] stood at 7.5 µM; in test [11], 8.3 µM; in test [12], 8.9 µM; in test [1], 8.2 µM; in [13], 6.9 µM.

Molecule `COc1cc(F)c(/C=C2\CNC/C(=C\c3cc(OC)c(OC)cc3F)C2=O)cc1OC` returned an IC50 in test [14] of 5.2 µM.

In [15], `COc1cc(/C=C/C(=O)CC(=O)/C=C/c2ccc(OC3O[C@H](CO)[C@@H](O)[C@H](O)[C@H]3O)c(OC)c2)ccc1OC1O[C@H](CO)[C@@H](O)[C@H](O)[C@H]1O` (stereo partly specified) gave an IC50 of 41.6 µM.

For the molecule `CCOC(OCC)c1ccc(CC2CN(C)CC(Cc3ccc(C(OCC)OCC)cc3)C2=NO)cc1` (stereo unspecified), the IC50 in test [16] was found to be 0.3 µM; in test [17], 0.2 µM; in [18], 0.4 µM; in test [19] it was 0.2 µM; in [20], 0.4 µM; in test [21], 0.2 µM. Besides, the IC50 in [22] turned out to be 0.4 µM.

As for `COc1cc(/C=C/C(=O)N/N=C/c2ccc(O)c(OC)c2)ccc1O`, the IC50 was found to be 43 µM in [23] and 74.6 µM in test [24].

Regarding `COc1cc(/C=C/C(=O)/C=C/c2ccc(OCC(=O)Nc3ccccc3)c(OC)c2)ccc1OCC(=O)Nc1ccccc1`, the “growth inhibition (GI)” value in test [25] is 86.76%; in test [26] it was 60.13%.

With `COc1ccc(NC(=O)COc2ccc(/C=C/C(=O)/C=C/c3ccc(OCC(=O)Nc4ccc(OC)cc4)c(OC)c3)cc2OC)cc1`, the “growth inhibition (GI)” value in test [25] came out at 83.63%; in [26], 57.96%.

In turn, `COc1cc(/C=C/C2=NN(c3nc(/N=C4\CC[C@H]5[C@@H]6CC[C@H]7C[C@@H](OC(C)=O)CC[C@]7(C)[C@H]6CC[C@]45C)cc(=O)[nH]3)C(/C=C/c3ccc(O)c(OC)c3)C2)ccc1O` (stereo partly specified) registered an IC50 in test [27] of 18 µM.

The molecule `CCCC(=O)Oc1ccc(/C=C2\CN(C(=O)c3ccccc3)C/C(=C\c3ccc(OC(=O)CCC)c(OCC)c3)C2=O)cc1OCC` had an IC50 in test [28] of 0.19 µM.

As to `COc1cc(/C=C/C(=O)/C(CNc2ccc(S(N)(=O)=O)cc2)=C(O)/C=C/c2ccc(O)c(OC)c2)ccc1O`, the IC50 in [16] amounted to 1.29 µM; in test [29] it was 10.2 µM.

On to `CCCC(=O)Oc1ccc(/C=C2\CN(C(C)=O)C/C(=C\c3ccc(OC(=O)CCC)c(OC)c3)C2=O)cc1OC`, for which the IC50 in test [28] was 0.246 µM. In other words, the sub-micromolar range.

In the case of `O=C(/C=C/c1ccccc1C(F)(F)F)/C=C/c1ccccc1C(F)(F)F`, the IC50 in test [30] was 3.1 µM.

For `COc1ccc(OC)c(/C=C/C(=O)/C=C/c2cc(OC)ccc2OC)c1`, the IC50 in test [31] is 3.02 µM; in test [32] it was 1.52 µM; in test [8], 14 µM.

With `O=C(/C=C(\O)c1ccccc1)c1ccccc1O` [2',beta-DIHYDROXYCHALCONE], the IC50 stood at 14.5 µM in test [33] and 7.5 µM in [15].

`CC/C(=C(\c1ccccc1)c1ccc(OCCN(C)C)cc1)c1ccccc1` [TAMOXIFEN]: the IC50 in test [27] is 4 µM. This lies in the single-digit micromolar range.

Values taken from ChEMBL document CHEMBL4364241, “Developments in the anticancer activity of structurally modified curcumin: An up-to-date review” (Eur J Med Chem, 2019).
